From PubChem BioAssay (NCI)
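Compound exposure: 48 hours, 5 concentrations, 96-well plates. Here, GI50 denotes the concentration required for 50% inhibition of growth. TGI is the concentration that stops growth completely.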

How the values were obtained:
Assay in all cases: NCI tumour cell line growth inhibition, 48 h
T-47D breast = test system: T-47D breast
OVCAR-8 ovarian = test system: OVCAR-8 ovarian
SK-OV-3 ovarian = test system: SK-OV-3 ovarian
A498 renal = test system: A498 renal
RPMI-8226 leukemia = test system: RPMI-8226 leukemia
COLO 205 colon = test system: COLO 205 colon
CAKI-1 renal = test system: CAKI-1 renal
HCT-116 colon = test system: HCT-116 colon
OVCAR-5 ovarian = test system: OVCAR-5 ovarian
SK-MEL-2 melanoma = test system: SK-MEL-2 melanoma
MDA-MB-231 breast = test system: MDA-MB-231 breast
MCF7 breast = test system: MCF7 breast
HCT-15 colon = test system: HCT-15 colon
SNB-75 CNS = test system: SNB-75 CNS
M14 melanoma = test system: M14 melanoma
SF-539 CNS = test system: SF-539 CNS
KM12 colon = test system: KM12 colon
K-562 leukemia = test system: K-562 leukemia
NCI-H226 lung = test system: NCI-H226 lung
NCI-H522 lung = test system: NCI-H522 lung
IGROV1 ovarian = test system: IGROV1 ovarian
NCI-H460 lung = test system: NCI-H460 lung
SF-268 CNS = test system: SF-268 CNS
SR leukemia = test system: SR leukemia
MDA-MB-435 = test system: MDA-MB-435
HOP-92 NSCLC = test system: HOP-92 NSCLC
EKVX NSCLC = test system: EKVX NSCLC
HCC-2998 colon = test system: HCC-2998 colon
OVCAR-3 ovarian = test system: OVCAR-3 ovarian
SK-MEL-5 melanoma = test system: SK-MEL-5 melanoma
NCI/ADR-RES ovarian = test system: NCI/ADR-RES ovarian
ACHN renal = test system: ACHN renal
NCI-H23 lung = test system: NCI-H23 lung
HL-60(TB) leukemia = test system: HL-60(TB) leukemia
UO-31 renal = test system: UO-31 renal
MALME-3M melanoma = test system: MALME-3M melanoma
TK-10 renal = test system: TK-10 renal
SN12C renal = test system: SN12C renal
HOP-62 NSCLC = test system: HOP-62 NSCLC
SW-620 colon = test system: SW-620 colon
OVCAR-4 ovarian = test system: OVCAR-4 ovarian
SNB-19 CNS = test system: SNB-19 CNS
786-0 renal = test system: 786-0 renal
DU-145 prostate = test system: DU-145 prostate
A549 NSCLC = test system: A549 NSCLC
U251 CNS = test system: U251 CNS
SK-MEL-28 melanoma = test system: SK-MEL-28 melanoma
HS 578T breast = test system: HS 578T breast
RXF 393 renal = test system: RXF 393 renal
BT-549 breast = test system: BT-549 breast
UACC-62 melanoma = test system: UACC-62 melanoma
PC-3 prostate = test system: PC-3 prostate
MOLT-4 leukemia = test system: MOLT-4 leukemia
LOX IMVI melanoma = test system: LOX IMVI melanoma
CCRF-CEM leukemia = test system: CCRF-CEM leukemia
UACC-257 melanoma = test system: UACC-257 melanoma
HT29 colon = test system: HT29 colon

`N#Cc1ncc(/N=C/c2ccc(N(CCCl)CCCl)cc2)s1` showed a GI50 (T-47D breast) of 6.71 µM, a TGI (T-47D breast) of over 100 µM and a GI50 (OVCAR-8 ovarian) of 7.58 µM. The TGI (OVCAR-8 ovarian) was over 100 µM, the GI50 (SK-OV-3 ovarian) was 27.7 µM and the TGI (SK-OV-3 ovarian) was over 100 µM. It also gave a GI50 (A498 renal) of 1.63 µM, a TGI (A498 renal) of 4.4 µM and a GI50 (RPMI-8226 leukemia) of 53.7 µM. For the same compound, the TGI (RPMI-8226 leukemia) was over 100 µM, the GI50 (COLO 205 colon) was 64 µM and the TGI (COLO 205 colon) was over 100 µM. It also gave a GI50 (CAKI-1 renal) of 2.22 µM, a TGI (CAKI-1 renal) of 8.18 µM and a GI50 (HCT-116 colon) of 30.2 µM. It also gave a TGI (HCT-116 colon) of over 100 µM, a GI50 (OVCAR-5 ovarian) of 17.5 µM and a TGI (OVCAR-5 ovarian) of over 100 µM. The GI50 (SK-MEL-2 melanoma) was 69.9 µM, the TGI (SK-MEL-2 melanoma) was over 100 µM and the GI50 (MDA-MB-231 breast) was 50.2 µM. For the same compound, the TGI (MDA-MB-231 breast) was over 100 µM, the GI50 (MCF7 breast) was 8.85 µM and the TGI (MCF7 breast) was over 100 µM. The GI50 (HCT-15 colon) was 21.8 µM, the TGI (HCT-15 colon) was over 100 µM and the GI50 (SNB-75 CNS) was 17.6 µM. It also gave a TGI (SNB-75 CNS) of over 100 µM, a GI50 (M14 melanoma) of 35.2 µM and a TGI (M14 melanoma) of over 100 µM. For the same compound, the GI50 (SF-539 CNS) was 16.8 µM, the TGI (SF-539 CNS) was over 100 µM and the GI50 (KM12 colon) was 76.5 µM. The TGI (KM12 colon) was over 100 µM, the GI50 (K-562 leukemia) was 7.51 µM and the TGI (K-562 leukemia) was over 100 µM. The GI50 (NCI-H226 lung) was 0.897 µM, the TGI (NCI-H226 lung) was 7.71 µM and the GI50 (NCI-H522 lung) was 29.8 µM. For the same compound, the TGI (NCI-H522 lung) was over 100 µM, the GI50 (IGROV1 ovarian) was 40.4 µM and the TGI (IGROV1 ovarian) was over 100 µM. The GI50 (NCI-H460 lung) was 3.31 µM, the TGI (NCI-H460 lung) was 66.8 µM and the GI50 (SF-268 CNS) was 15.6 µM. For the same compound, the TGI (SF-268 CNS) was over 100 µM, the GI50 (SR leukemia) was 0.543 µM and the TGI (SR leukemia) was over 100 µM. It also gave a GI50 (MDA-MB-435) of 28.4 µM, a TGI (MDA-MB-435) of over 100 µM and a GI50 (HOP-92 NSCLC) of 24.7 µM. It also gave a TGI (HOP-92 NSCLC) of 93.3 µM, a GI50 (EKVX NSCLC) of 42.2 µM and a TGI (EKVX NSCLC) of over 100 µM. For the same compound, the GI50 (HCC-2998 colon) was 23.9 µM, the TGI (HCC-2998 colon) was over 100 µM and the GI50 (OVCAR-3 ovarian) was 14.5 µM. It also gave a TGI (OVCAR-3 ovarian) of 45 µM, a GI50 (SK-MEL-5 melanoma) of 27.9 µM and a TGI (SK-MEL-5 melanoma) of over 100 µM. For the same compound, the GI50 (NCI/ADR-RES ovarian) was 7.36 µM, the TGI (NCI/ADR-RES ovarian) was over 100 µM and the GI50 (ACHN renal) was 5.13 µM. It also gave a TGI (ACHN renal) of 41.6 µM, a GI50 (NCI-H23 lung) of 5.53 µM and a TGI (NCI-H23 lung) of over 100 µM. The GI50 (HL-60(TB) leukemia) was 7.44 µM, the TGI (HL-60(TB) leukemia) was over 100 µM and the GI50 (UO-31 renal) was 6.26 µM. For the same compound, the TGI (UO-31 renal) was 30 µM, the GI50 (MALME-3M melanoma) was 30.8 µM and the TGI (MALME-3M melanoma) was over 100 µM. For the same compound, the GI50 (TK-10 renal) was 23.2 µM, the TGI (TK-10 renal) was 97.4 µM and the GI50 (SN12C renal) was 8.28 µM. For the same compound, the TGI (SN12C renal) was over 100 µM, the GI50 (HOP-62 NSCLC) was 17.9 µM and the TGI (HOP-62 NSCLC) was over 100 µM. For the same compound, the GI50 (SW-620 colon) was 9.69 µM, the TGI (SW-620 colon) was over 100 µM and the GI50 (OVCAR-4 ovarian) was 41.8 µM. It also gave a TGI (OVCAR-4 ovarian) of over 100 µM, a GI50 (SNB-19 CNS) of 77.7 µM and a TGI (SNB-19 CNS) of over 100 µM. It also gave a GI50 (786-0 renal) of 4.52 µM, a TGI (786-0 renal) of 20.3 µM and a GI50 (DU-145 prostate) of 5.62 µM. The TGI (DU-145 prostate) was 57.1 µM, the GI50 (A549 NSCLC) was 28.2 µM and the TGI (A549 NSCLC) was over 100 µM. For the same compound, the GI50 (U251 CNS) was 18.6 µM, the TGI (U251 CNS) was over 100 µM and the GI50 (SK-MEL-28 melanoma) was 79.7 µM. For the same compound, the TGI (SK-MEL-28 melanoma) was over 100 µM, the GI50 (HS 578T breast) was 63.1 µM and the TGI (HS 578T breast) was over 100 µM. The GI50 (RXF 393 renal) was 12.4 µM, the TGI (RXF 393 renal) was 28.9 µM and the GI50 (BT-549 breast) was 29.6 µM. It also gave a TGI (BT-549 breast) of over 100 µM, a GI50 (UACC-62 melanoma) of 3.09 µM and a TGI (UACC-62 melanoma) of 28.7 µM. The GI50 (PC-3 prostate) was 34.9 µM, the TGI (PC-3 prostate) was over 100 µM and the GI50 (MOLT-4 leukemia) was 10.6 µM. It also gave a TGI (MOLT-4 leukemia) of over 100 µM, a GI50 (LOX IMVI melanoma) of 6.89 µM and a TGI (LOX IMVI melanoma) of over 100 µM. For the same compound, the GI50 (CCRF-CEM leukemia) was 16 µM, the TGI (CCRF-CEM leukemia) was over 100 µM and the GI50 (UACC-257 melanoma) was 13.3 µM. It also gave a TGI (UACC-257 melanoma) of 63 µM, a GI50 (HT29 colon) of 72.8 µM and a TGI (HT29 colon) of over 100 µM.
